Reference: ChEMBL document CHEMBL4699665, “Discovery of ANT3310, a Novel Broad-Spectrum Serine β-Lactamase Inhibitor of the Diazabicyclooctane Class, Which Strongly Potentiates Meropenem Activity against Carbapenem-Resistant Enterobacterales and Acinetobacter baumannii” (J Med Chem, 2020)

Assays:
Cytochrome P450 2C9 = Cytochrome P450 2C9 (Homo sapiens, UniProt P11712); assay: Inhibition of CYP2C9 in human liver microsomes in presence of NADPH by LC-MS/MS analysis; assay type: ADME
[1] = Cytotoxicity against human HepG2 cells; assay type: cell-based
Cytochrome P450 2C19 = Cytochrome P450 2C19 (Homo sapiens, UniProt P33261); assay: Inhibition of CYP2C19 in human liver microsomes in presence of NADPH by LC-MS/MS analysis; assay type: ADME
Enterobacter [2] = assay: Inhibition of beta lactamase OXA in carbapenem-resistant Enterobacter assessed as meropenem-induced antibacterial activity by measuring meropenem MIC 90 at 4 ug/ml by broth microdilution method (Rvb >32 ug/ml); settings: dose 4.0 µg/ml
[3] = biological target: Voltage-gated inwardly rectifying potassium channel KCNH2 (Homo sapiens, UniProt Q12809); assay: Inhibition of human ERG by patch-clamp assay
Acinetobacter baumannii [4] = assay: Antibacterial activity against Acinetobacter baumannii expressing OXA-23 by broth microdilution method; assay type: functional
Acinetobacter baumannii [5] = assay: Inhibition of beta lactamase OXA in carbapenem-resistant Acinetobacter baumannii assessed as meropenem minimum concentration required for antibacterial activity at 4 ug/ml by broth microdilution method (reference value: 8 ug/ml); settings: dose 4.0 µg/ml
[6] = Stability in human plasma assessed as parent compound remaining after 1 hr; assay type: ADME, cell-free; settings: read-out: Stabilty
Acinetobacter baumannii [7] = assay: Inhibition of beta lactamase OXA in carbapenem-resistant Acinetobacter baumannii assessed as meropenem-induced antibacterial activity by measuring meropenem MIC90 at 4 ug/ml by broth microdilution method (Rvb > 32 ug/ml); settings: dose 4.0 µg/ml
Acinetobacter baumannii [8] = assay: Inhibition of beta lactamase OXA in carbapenem-resistant Acinetobacter baumannii assessed as meropenem-induced antibacterial activity by measuring meropenem MIC50 at 4 ug/ml by broth microdilution method (Rvb > 32 ug/ml); settings: dose 4.0 µg/ml
Klebsiella pneumoniae [9] = assay: Potentiation of meropenem-induced antibacterial activity against Klebsiella pneumoniae expressing TEM-1/SHV-11/KPC-3 assessed as meropenem MIC at 4 ug/ml by broth microdilution method (reference value: 128 ug/ml); assay type: functional; settings: dose 4 µg/ml
[10] = Intrinsic clearance in rat hepatocytes assessed per million cells; assay type: ADME, cell-based, Hepatocyte; settings: read-out: CLH
Enterobacter cloacae = assay: Antibacterial activity against Enterobacter cloacae expressing TEM-1/KPC-2 by broth microdilution method; assay type: functional
[11] = Toxicity in iv dosed rat administered as single dose; assay type: organism-based; settings: in vivo
Enterobacter [12] = assay: Inhibition of beta lactamase KPC in carbapenem-resistant Enterobacter assessed as meropenem-induced antibacterial activity by measuring meropenem MIC90 at 4 ug/ml by broth microdilution method (Rvb >32 ug/ml); settings: dose 4.0 µg/ml
Enterobacter [13] = assay: Inhibition of beta lactamase KPC in carbapenem-resistant Enterobacter assessed as meropenem-induced antibacterial activity by measuring meropenem MIC50 at 4 ug/ml by broth microdilution method (Rvb >32 ug/ml); settings: dose 4.0 µg/ml
Klebsiella pneumoniae [14] = assay: Potentiation of meropenem-induced antibacterial activity against Klebsiella pneumoniae expressing SHV-11/OXA-121 assessed as meropenem MIC at 4 ug/ml by broth microdilution method (reference value: 16 ug/ml); assay type: functional; settings: dose 4 µg/ml
[15] = Clearance in rat at 1 mg/kg, iv; assay type: ADME, organism-based; settings: in vivo
Klebsiella pneumoniae [16] = assay: Potentiation of meropenem-induced antibacterial activity against Klebsiella Pneumoniae NR-48977 expressing KPC-2 infected in CD-1 mouse assessed as reduction in bacterial burden co administered with 300 mg/kg, iv meropenem; assay type: functional, organism-based; settings: dose mg/kg 25-100
[17] = Inhibition of beta lactamase CTXM-15 in Enterobacter cloacae assessed as decrease in enzyme activity using nitrocefin as substrate preincubated for 10 mins followed by substrate addition measured for 10 mins by fluorescence plate reader analysis
[18] = Inhibition of beta lactamase OXA-48 in Enterobacter cloacae assessed as decrease in enzyme activity using nitrocefin as substrate preincubated for 10 mins followed by substrate addition measured for 10 mins by fluorescence plate reader analysis
Acinetobacter baumannii [19] = assay: Potentiation of meropenem-induced antibacterial activity against Acinetobacter baumannii expressing OXA-23 assessed as meropenem MIC at 4 ug/ml by broth microdilution method (reference value: 32 ug/ml); assay type: functional; settings: dose 4 µg/ml
Enterobacter [20] = assay: Inhibition of beta lactamase OXA in carbapenem-resistant Enterobacter assessed as meropenem maximum concentration required for antibacterial activity at 4 ug/ml by broth microdilution method (Rvb > 32 ug/ml); settings: dose 4.0 µg/ml
Cytochrome P450 1A2 = biological target: T1, Cytochrome P450 1A2 (Homo sapiens, UniProt P05177); assay: Inhibition of CYP1A2 in human liver microsomes in presence of NADPH by LC-MS/MS analysis; assay type: ADME
T1 sequence (P05177 whole entry): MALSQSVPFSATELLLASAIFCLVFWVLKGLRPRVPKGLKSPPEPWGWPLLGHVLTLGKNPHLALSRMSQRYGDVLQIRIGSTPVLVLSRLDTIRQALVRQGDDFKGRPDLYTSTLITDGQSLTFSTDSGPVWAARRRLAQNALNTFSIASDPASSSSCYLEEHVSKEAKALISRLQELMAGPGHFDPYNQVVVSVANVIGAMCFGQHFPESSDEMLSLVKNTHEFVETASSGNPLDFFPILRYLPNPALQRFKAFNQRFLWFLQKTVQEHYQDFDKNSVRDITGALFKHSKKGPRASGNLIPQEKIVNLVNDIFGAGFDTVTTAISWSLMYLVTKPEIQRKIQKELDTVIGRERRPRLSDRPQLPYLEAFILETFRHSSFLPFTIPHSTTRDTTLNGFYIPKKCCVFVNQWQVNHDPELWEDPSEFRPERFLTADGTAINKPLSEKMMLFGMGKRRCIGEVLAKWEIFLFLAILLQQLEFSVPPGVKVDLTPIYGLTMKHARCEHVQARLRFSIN

Klebsiella pneumoniae [21] = assay: Potentiation of meropenem-induced antibacterial activity against Klebsiella pneumoniae expressing TEM-OSBL/CTX-M-14/OXA-48 assessed as meropenem MIC at 4 ug/ml by broth microdilution method (reference value: 16 ug/ml); assay type: functional; settings: dose 4 µg/ml
[22] = Plasma protein binding in mouse assessed as fraction unbound by LC-MS/MS analysis; assay type: ADME, cell-free
[23] = Inhibition of beta lactamase TEM-1 in Enterobacter cloacae assessed as decrease in enzyme activity using nitrocefin as substrate preincubated for 10 mins followed by substrate addition measured for 10 mins by fluorescence plate reader analysis
[24] = Inhibition of bacteria beta lactamase OXA-23 assessed as decrease in enzyme activity using nitrocefin as substrate preincubated for 10 mins followed by substrate addition measured for 10 mins by fluorescence plate reader analysis
[25] = Inhibition of beta lactamase AmpC in Enterobacter cloacae assessed as decrease in enzyme activity using nitrocefin as substrate preincubated for 10 mins followed by substrate addition measured for 10 mins by fluorescence plate reader analysis
Enterobacter [26] = assay: Inhibition of beta lactamase KPC in carbapenem-resistant Enterobacter assessed as meropenem maximum concentration required for antibacterial activity at 4 ug/ml by broth microdilution method (Rvb >32 ug/ml); settings: dose 4.0 µg/ml
Enterobacter [27] = assay: Inhibition of beta lactamase KPC in carbapenem-resistant Enterobacter assessed as meropenem minimum concentration required for antibacterial activity at 4 ug/ml by broth microdilution method (reference value: 4 ug/ml); settings: dose 4.0 µg/ml
[28] = Stability in dog plasma assessed as parent compound remaining after 1 hr; assay type: ADME, cell-free, Canis lupus familiaris; settings: read-out: Stabilty

Cytochrome P450 2C9, sequence (P11712 whole entry): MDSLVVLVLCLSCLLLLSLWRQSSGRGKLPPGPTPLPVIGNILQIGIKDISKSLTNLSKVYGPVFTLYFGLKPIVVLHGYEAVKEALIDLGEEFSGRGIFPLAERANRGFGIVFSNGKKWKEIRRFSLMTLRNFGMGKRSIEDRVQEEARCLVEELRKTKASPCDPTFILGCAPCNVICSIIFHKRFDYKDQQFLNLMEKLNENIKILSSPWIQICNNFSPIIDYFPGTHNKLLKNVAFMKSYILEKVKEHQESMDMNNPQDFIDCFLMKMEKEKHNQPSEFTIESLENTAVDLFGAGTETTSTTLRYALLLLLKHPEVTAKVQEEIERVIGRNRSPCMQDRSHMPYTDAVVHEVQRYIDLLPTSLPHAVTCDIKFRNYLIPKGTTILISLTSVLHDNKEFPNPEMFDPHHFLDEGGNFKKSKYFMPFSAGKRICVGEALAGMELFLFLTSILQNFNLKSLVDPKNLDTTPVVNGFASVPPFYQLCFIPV
Cytochrome P450 2C19, sequence (P33261 whole entry): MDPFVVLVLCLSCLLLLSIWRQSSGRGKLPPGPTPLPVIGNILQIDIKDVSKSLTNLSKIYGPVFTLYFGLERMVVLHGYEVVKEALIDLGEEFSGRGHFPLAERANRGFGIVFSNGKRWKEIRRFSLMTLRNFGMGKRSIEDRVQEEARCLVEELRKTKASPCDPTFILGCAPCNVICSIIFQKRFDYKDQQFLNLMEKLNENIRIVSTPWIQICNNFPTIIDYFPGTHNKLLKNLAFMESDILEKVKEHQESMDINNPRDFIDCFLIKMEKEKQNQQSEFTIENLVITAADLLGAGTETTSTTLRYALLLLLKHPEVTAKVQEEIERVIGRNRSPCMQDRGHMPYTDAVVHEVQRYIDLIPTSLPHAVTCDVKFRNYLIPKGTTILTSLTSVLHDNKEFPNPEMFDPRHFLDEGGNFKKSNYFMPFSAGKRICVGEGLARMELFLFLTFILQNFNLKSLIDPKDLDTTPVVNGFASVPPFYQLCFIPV
Voltage-gated inwardly rectifying potassium channel KCNH2, sequence (Q12809 whole entry): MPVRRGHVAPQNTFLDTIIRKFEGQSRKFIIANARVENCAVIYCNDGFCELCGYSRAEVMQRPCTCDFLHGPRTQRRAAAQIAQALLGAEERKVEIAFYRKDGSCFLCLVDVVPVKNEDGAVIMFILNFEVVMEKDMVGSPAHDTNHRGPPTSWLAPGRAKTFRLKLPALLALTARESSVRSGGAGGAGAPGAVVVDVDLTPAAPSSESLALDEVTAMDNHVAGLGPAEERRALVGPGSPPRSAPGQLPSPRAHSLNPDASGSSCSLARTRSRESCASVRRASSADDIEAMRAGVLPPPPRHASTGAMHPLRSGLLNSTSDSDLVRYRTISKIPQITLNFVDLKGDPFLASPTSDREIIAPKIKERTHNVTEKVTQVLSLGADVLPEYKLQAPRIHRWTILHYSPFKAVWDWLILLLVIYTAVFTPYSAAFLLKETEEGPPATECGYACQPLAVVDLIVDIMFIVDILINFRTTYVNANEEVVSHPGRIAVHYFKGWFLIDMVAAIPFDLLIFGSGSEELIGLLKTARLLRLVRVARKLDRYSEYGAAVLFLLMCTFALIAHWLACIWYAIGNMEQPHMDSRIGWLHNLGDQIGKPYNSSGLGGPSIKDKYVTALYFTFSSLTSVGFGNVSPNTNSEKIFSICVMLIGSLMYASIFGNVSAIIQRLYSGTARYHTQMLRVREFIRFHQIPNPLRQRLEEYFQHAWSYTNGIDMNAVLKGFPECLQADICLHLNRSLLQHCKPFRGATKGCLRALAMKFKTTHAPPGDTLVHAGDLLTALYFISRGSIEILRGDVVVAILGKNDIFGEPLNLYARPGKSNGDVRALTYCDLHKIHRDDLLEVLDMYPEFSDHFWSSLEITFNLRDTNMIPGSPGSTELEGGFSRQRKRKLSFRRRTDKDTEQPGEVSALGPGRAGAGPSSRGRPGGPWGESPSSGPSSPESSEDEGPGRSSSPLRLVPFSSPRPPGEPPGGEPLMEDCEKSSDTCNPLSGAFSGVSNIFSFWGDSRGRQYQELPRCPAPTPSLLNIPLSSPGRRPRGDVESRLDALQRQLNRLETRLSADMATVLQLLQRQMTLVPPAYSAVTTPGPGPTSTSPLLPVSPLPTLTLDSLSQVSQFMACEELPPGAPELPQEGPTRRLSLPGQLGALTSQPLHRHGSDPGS

Molecule O=C1N2C[C@@H](CC[C@H]2F)N1OS(=O)(=O)[O-].[Na+] has an IC50 (Cytochrome P450 2C9) greater than 50000 nM, a CC50 [1] greater than 100000 nM and an IC50 (Cytochrome P450 2C19) greater than 50000 nM. The MIC90 (Enterobacter [2]) was 1 µg/mL, the IC50 [3] was greater than 100000 nM and the MIC (Acinetobacter baumannii [4]) was greater than 128 µg/mL. For the same molecule, the MIC (Acinetobacter baumannii [5]) was 0.25 µg/mL, the remaining at 1 h [6] was 79% and the MIC90 (Acinetobacter baumannii [7]) was 8 µg/mL. It also gave an MIC50 (Acinetobacter baumannii [8]) of 4 µg/mL, an MIC (Klebsiella pneumoniae [9]) of 1 µg/mL and a hepatocyte CLint [10] of less than 3.4 µL/min/1e6 cells. It also gave an MIC (Enterobacter cloacae) of 128 µg/mL, an MTD [11] of no less than 1000 mg/kg and an MIC90 (Enterobacter [12]) of 1 µg/mL. It also gave an MIC50 (Enterobacter [13]) of 0.06 µg/mL, an MIC (Klebsiella pneumoniae [14]) of 1 µg/mL and a clearance [15] of 40 mL/min/kg. The Activity (Klebsiella pneumoniae [16]) was “Dose-dependent effect”, the IC50 [17] was 2 nM and the IC50 [18] was 175 nM. It also gave an MIC (Acinetobacter baumannii [19]) of 2 µg/mL, an Activity (Enterobacter [20]) of 2 µg/mL and an IC50 (Cytochrome P450 1A2) greater than 50000 nM. It also gave an MIC (Klebsiella pneumoniae [21]) of 0.25 µg/mL, a fraction unbound [22] greater than 0.93 and an IC50 [23] of 1 nM. It also gave an IC50 [24] of 50 nM, an IC50 [25] of 10 nM and an Activity (Enterobacter [26]) of 16 µg/mL. It also gave an MIC (Enterobacter [27]) of less than 0.03 µg/mL and a remaining at 1 h [28] of 85%.
